In patent US20100068301A1, “COMPOSITIONS AND TREATMENTS COMPRISING 5-LIPOXYGENASE-ACTIVATING PROTEIN INHIBITORS AND NITRIC OXIDE MODULATORS” (priority 2006, published 2010):
Like-named read-outs stand apart in the source and are kept apart here.

What was measured:
[1] = test system: naproxen induced gastric lesions; assay: Rat gastric lesion procedure (naproxen-induced); format: in vivo; settings: co-dosed with naproxen 40 mg/kg
Procedure: Gastric lesions in rat can be induced by ingestion of a non-steroidal anti-inflammatory drug (NSAID) such as naproxen. This effect is apparent with 4 to 6 hours of administration. The therapeutic effect of two different agents on preventing NSAID-induced gastric lesions first as a mono-therapy and then as a combination therapy using a fractional dose approach to test for additivity. The two agents tested include 1) 3-[3-tert-Butylsulfanyl-1-[4-(6-ethoxy-pyridin-3-yl)-benzyl]-5-(pyridin-2-ylmethoxy)-1H-indol-2-yl]-2,2-dimethyl-propionic acid (prepared according to the procedures described in US patent publication no. 2007/0105866; see Compound 2-94), a 5-lipoxygenase activating protein (FLAP) inhibitor and 2) isosorbide mononitrate (a nitric oxide donor).
Procedures: Gastric lesions were induced in 24-hour fasted male Sprague-Dawley rats (weighing 200-300 grams) by administering a single oral dose of naproxen (40 mg/kg), in the mono-therapy phase of the study Compound 2-94 was prepared at 1, 10 and 30 mg/kg and was co-dosed with naproxen. Separately, isosorbide mononitrate was prepared at 3, 10, 30 and 100 mg/kg and was co-dosed with naproxen. The ED50 (defined as the dose to produce the half maximal effect) from this phase of the experiment was used to calculate doses for the combination therapy phase of the study in which Compound 2-94 and isosorbide mononitrate were formulated together and co-dosed with Naproxen. Fractional doses tested include; 2, 1, ½ and ¼ of the ED50 values. In all conditions, four hours alter dosing, rats were anesthetized with inhaled isoflurane and the stomachs removed and cut along the lesser curvature and rinsed thoroughly of any contents using tap water. Each stomach was then pinned down flat with the mucosal layer side up and a digit image captured at an exposure of 10×. These images were then used to determine the total lesion area in mm^2. A Lesion Index (LI) was calculated for each individual stomach by the formula:
LI=[lesion area (mm^2)/total stomach area (mm^2)]×100
Individual drug effects were then determined by calculating the percent inhibition of LI for each dose group relative to the naproxen-alone group using the formula:
% inhibition=100−[LItreatment/LIcontrol(naproxen)×100]
(ED50 of Compound 2-94 with isosorbide mononitrate)/(ED50 ft for Compound 2-94 given alone)+(ED50 of isosorbide mononitrate with Compound 2-94)/(ED50 for isosorbide given alone).
The fractional value indicates what proportion of the single ED50 value was accounted for by the corresponding ED50 value of the combination.

[2] = intravenous, cited from earlier work
[3] = Compound 2-94 and isosorbide mononitrate formulated together, read-out: fraction dose ED50 (dose of the component in the combination)
[4] = oral, 4 h after dosing, estimated, read-out: ED50, inhibition of naproxen induced gastric lesions (mono-therapy)

| Compound | ED50 [1, 3] [mg/kg] | ED50 [1, 4] [mg/kg] | decrease of pulmonary vascular resistance (PVR), mean ([2]; 15 patients) [%] | mean PAP after treatment ([2]; 15 patients, decreased from 29.6) [mm Hg] | mean systemic arterial pressure after treatment ([2]; 15 patients, reduced from 89.6, unacceptably low level) [mm Hg] | effect on pulmonary gas exchange ([2]; by increasing QVA/QT) |
| --- | --- | --- | --- | --- | --- | --- |
| O=[N+]([O-])O[C@@H]1CO[C@H]2[C@@H]1OC[C@@H]2O [isosorbide mononitrate] | 7.5 | 15 | – | – | – | – |
| nitroprusside | – | – | 32 | 24.2 | 70 | markedly impairs pulmonary gas exchange |
| CCOc1ccc(-c2ccc(Cn3c(CC(C)(C)C(=O)O)c(SC(C)(C)C)c4cc(OCc5ccccn5)ccc43)cc2)cn1 [Compound 2-94, 3-[3-tert-Butylsulfanyl-1-[4-(6-ethoxy-pyridin-3-yl)-benzyl]-5-(pyridin-2-ylmethoxy)-1H-indol-2-yl]-2,2-dimethyl-propionic acid] | 2.5 | 5 | – | – | – | – |
